Assay results from patent US10123541B2, “Biocidal mixture, use of biocidal mixture and compositions comprising a biocidal mixture” (ISP Investments LLC, priority 2014, dated 2018).

Key:
Assay in all cases: Minimum Inhibitory Concentration (MIC) growth test
Assay type in all cases: cell-based
[1] = tested on: Burkholderia cepacia, ATCC 25416; set-up: key to growth of organisms: − = no growth; + = low growth; ++ = moderate growth; +++ = high growth
Text: (§1) This example intends to analyze the microbial activity of the mixture of invention compared to the individual activity of the mixture components using the methodology that determines the minimal concentration of the substance or mixture that inhibits microorganism growth.
(§2) The tested micro-organisms were: • Staphylococcus aureus, ATCC 6538 • Escherichia coli, ATCC 8739 • Pseudomonas aeruginosa, ATCC 9027 • Burkholderia cepacia, ATCC 25416 • Candida albicans, ATCC 10231 • Aspergillus brasiliensis, ATCC 16404
(§3) The samples of the table above were initially prepared with an initial concentration of 3% based on their solubility in water, and then diluted to achieve the following concentrations: 1.5%; 0.75%; 0.375%; 0.1875%; 0.09375%.
(§4) The dilutions were obtained as follows: (a) to a first test tube containing 5 mL of tripticase soy broth (TSB), 5 mL of 3% concentration solution were added and the mixture was vortexed. 5 mL of the contents of this tube were removed and added to a second tube containing 5 mL of TSB and the mixture was vortexed. This procedure was repeated until obtaining the various concentrations.
(§5) The tested organisms were prepared as typical organism inoculants, under the form of a saline suspension. The concentration of bacterial inoculants was approximately 1×10^6 cfu/mL (“colony-forming unit per milliliter”). The concentration of fungal inoculants was approximately 1×10^5 spores/mL. In the sequence, each sample solution was inoculated with 0.1 mL of organism inoculum and vortexed. The tubes containing bacteria were incubated for 24 hours at 35° C. and the tubes containing fungi were incubated for 48 hours at 25° C.
(§6) An aliquot of 0.1 mL from these tubes was transferred to a tube having 9 mL of Letheen broth containing neutralizing agents. These Letheen tubes were again incubated for 48 hours with Letheen under incubation temperature for bacteria or fungi. Then, a swab previously wet with TSB was put in contact with sample solutions with concentrations 1.5%; 0.75%; 0.375%; 0.1875% and 0.09375%, and then they were swiped over the surface of culture plates (for bacteria: Letheen agar, AOAC—Association of Official Analytical Chemists; for fungi: Mycophil® agar of low pH with Tween® 20 polysorbate surfactant).

[2] = tested on: Escherichia coli, ATCC 8739; set-up: key to growth of organisms: − = no growth; + = low growth; ++ = moderate growth; +++ = high growth
Text: as §1, §2, §3, §4, §5, §6

[3] = tested on: Staphylococcus aureus, ATCC 6538; set-up: key to growth of organisms: − = no growth; + = low growth; ++ = moderate growth; +++ = high growth
Text: as §1, §2, §3, §4, §5, §6

[4] = tested on: Aspergillus brasiliensis, ATCC 16404; set-up: key: − = no growth; + = low growth; ++ = moderate growth; +++ = high growth
Text: as §1, §2, §3, §4, §5, §6

[5] = tested on: Candida albicans, ATCC 10231; set-up: key: − = no growth; + = low growth; ++ = moderate growth; +++ = high growth
Text: as §1, §2, §3, §4, §5, §6

[6] = tested on: Pseudomonas aeruginosa, ATCC 9027; set-up: key: − = no growth; + = low growth; ++ = moderate growth; +++ = high growth
Text: as §1, §2, §3, §4, §5, §6

With `OCCCc1ccccc1` [Sample 1, Phenylpropanol] the “inhibition of growth (in words)” value ([1]; concentration of 1.5%) was “not able to inhibit the growth”, the growth of organisms ([1]; sample concentration 0.09375%) was “+” and the growth of organisms ([1]; sample concentration 0.1875%) was “+”. For the same compound, the growth of organisms ([1]; sample concentration 0.375%) was “+”, the growth of organisms ([1]; sample concentration 0.75%) was “+” and the growth of organisms ([1]; sample concentration 1.5%) was “+”. The “inhibition of growth (in words)” value ([2]; concentration of 1.5%) was “not able to inhibit the growth”, the growth of organisms ([2]; sample concentration 0.09375%) was “+” and the growth of organisms ([2]; sample concentration 0.1875%) was “+”. The growth of organisms ([2]; sample concentration 0.375%) was “+”, the growth of organisms ([2]; sample concentration 0.75%) was “+” and the growth of organisms ([2]; sample concentration 1.5%) was “+”. The “inhibition of growth (in words)” value ([3]; concentration of 1.5%) was “not able to inhibit the growth”, the growth of organisms ([3]; sample concentration 0.09375%) was “+” and the growth of organisms ([3]; sample concentration 0.1875%) was “+”. The growth of organisms ([3]; sample concentration 0.375%) was “+”, the growth of organisms ([3]; sample concentration 0.75%) was “+” and the growth of organisms ([3]; sample concentration 1.5%) was “+”. For the same compound, the growth of organisms ([4]; sample concentration 0.09375%) was “+”, the growth of organisms ([4]; sample concentration 0.1875%) was “+” and the growth of organisms ([4]; sample concentration 0.375%) was “+”. The growth of organisms ([4]; sample concentration 0.75%) was “−”, the growth of organisms ([4]; sample concentration 1.5%) was “−” and the growth of organisms ([5]; sample concentration 0.09375%) was “+”. For the same compound, the growth of organisms ([5]; sample concentration 0.1875%) was “+”, the growth of organisms ([5]; sample concentration 0.375%) was “+” and the growth of organisms ([5]; sample concentration 0.75%) was “−”. For the same compound, the growth of organisms ([5]; sample concentration 1.5%) was “−”, the growth of organisms ([6]; sample concentration 0.09375%) was “+” and the growth of organisms ([6]; sample concentration 0.1875%) was “+”. The growth of organisms ([6]; sample concentration 0.375%) was “+”, the growth of organisms ([6]; sample concentration 0.75%) was “+” and the growth of organisms ([6]; sample concentration 1.5%) was “−”.
